In US7563905B2, “Triazole derivatives and method of using the same to treat HIV infections” (Wyeth, priority 2004, dated 2009):

Molecular target: T1, HIV Reverse transcriptase (RT) 66/p51 (Human immunodeficiency virus type 1 group M subtype B, UniProt P04585)
T1 construct: HIV Reverse transcriptase (RT) 66/p51; purchased Worthington
Test: RNA dependent DNA polymerase (RDDP) activity of HIV RT, polyrA-oligodT12-18 / 33P TTP incorporation filter assay
Type: biochemical

SMILES	IC50 [µM]
Cc1cn([C@H]2C[C@H](N=[N+]=[N-])[C@@H](CO)O2)c(=O)[nH]c1=O [AZT]	< 0.2

Molecular target: T2, HIV reverse transcriptase (Human immunodeficiency virus type 1 group M subtype B, UniProt P04585)
T2 construct: HIV reverse transcriptase has an RNase H domain at the C-terminus of its p66 subunit
Test: Inhibition of HIV reverse transcriptase (RNase H fluorescent probe assay), Table I
Type: biochemical
Description: RNase H is an enzyme responsible for the removal of RNA primers from leading and lagging strands during DNA synthesis. It is an important enzyme for the replication of bacterial, viral and human genomes. HIV reverse transcriptase has an RNase H domain at the C-terminus of its p66 subunit. […] The ability of the compounds of the present invention to inhibit RNase H, and more particularly HIV reverse transcriptase, may be determined by any means known in the art.
Preferably, the RNase H/HIV reverse transcriptase modulatory activity of the compounds of the present invention may be determined by the methods described in copending U.S. Provisional Patent Application No. 60/436,125, filed Dec. 19, 2002 and PCT International Publication No. WO/2004/059012, filed Dec. 22, 2003 for ASSAY FOR RNase ACTIVITY of Olson et al., incorporated herein by reference in its entirety. Specifically, the modulatory activity of a triazole derivative of the present invention may be determined by hybridizing a target nucleic acid to a fluorescently labeled oligonucleotide probe complementary to the target nucleic acid and containing a fluorophor at one terminus and a quenching group at the other terminus to obtain a probe-target hybrid, wherein (i) the unhybridized probe adopts a conformation that places the fluorophon and quencher in such proximity that the quencher quenches the fluorescent signal of the fluorophon, and (ii) the formation of the probe-target hybrid causes sufficient separation of the fluorophon and quencher to reduce quenching of the fluorescent signal of the fluorophon. Next, a first and second sample containing the probe-target hybrid are prepared. The probe-target hybrid of the first sample is then contacted with an RNase H enzyme (such as HIV reverse transcriptase) in an amount sufficient to selectively cleave the target nucleic acid and thereby release the intact probe. The probe-target hybrid of the second sample is also contacted with the RNase H enzyme in an amount sufficient to selectively cleave the target nucleic acid and thereby release the intact probe in the presence of a triazole derivative of the present invention. The release of the probe in each sample may then be detected by measuring the […] in the fluorescent signal of the fluorophon as compared to the signal of the probe-target hybrid. A comparison of the rate of the decrease in the fluorescent signal of the fluorophon in the two samples is made to determine whether there is a difference in the rate of the decrease in the two samples. […] This method is also useful to identify triazole derivatives of the present invention, wherein candidate derivatives are screened for their ability to modulate RNase/HIV reverse transcriptase activity.

SMILES	IC50 [µM]
c1ccc(CSc2nnc(-c3ccccc3)n2Cc2ccccc2)cc1 [Example 5, 4-benzyl-3-(benzylthio)-5-phenyl-4H-1,2,4-triazole]	1
Clc1ccc(CSc2nnc(-c3ccccn3)n2Cc2ccccc2)cc1 [Example 17, 2-[4-benzyl-5-(4-chloro-benzylsulfanyl)-4H-1,2,4-triazol-3-yl]pyridine]	23
c1ccc(Cn2c(SCc3ccncc3)nnc2-c2cccs2)cc1 [Example 3, 4-{[(4-benzyl-5-thien-2-yl-4H-1,2,4-triazol-3-yl)thio}methyl}pyridine]	0.2
COc1ccc(Cn2c(SCc3ccc(C(F)(F)F)cc3)nnc2-c2ccco2)cc1 [Example 14, 3-(2-furyl)-4(4-methoxybenzyl)-5-{[4-(trifluoromethyl)benzyl]thio}-4H-1,2,4-triazole]	6.5
c1ccc(CSc2nnc(-c3ccco3)n2Cc2ccccc2)cc1 [Example 6, 4-benzyl-3-(benzylthio)-5-(2-furyl)-4H-1,2,4-triazole]	1.2
c1ccc(Cn2c(SCc3ccncc3)nnc2-c2ccccn2)cc1 [Example 8, 2-[4-benzyl-5-[(pyridine-4-ylmethyl)thio)-4H-1,2,4-triazol-3-yl]pyridine]	2.6
COc1ccc(CSc2nnc(-c3cccs3)n2Cc2ccccc2)cc1 [Example 13, 4-benzyl-3-[(4-methoxybenzyl)thio]-5-thien-2-yl-4H-1,2,4-triazole]	5.9
c1ccc(CSc2nnc(-c3ccccn3)n2Cc2ccccc2)cc1 [Example 7, 2-[4-benzyl-5-(benzylthio)-4H-1,2,4-triazol-3-yl]pyridine]	1.7
Clc1ccc(CSc2nnc(-c3cccs3)n2Cc2ccccc2)cc1 [Example 1, 4-benzyl-3-[(4-chlorobenzyl)thio]-5-thien-2-yl-4H-1,2,4-triazole]	1.3
COc1ccc(CSc2nnc(-c3ccccn3)n2Cc2ccccc2)cc1 [Example 16, 2-[4-benzyl-5-(4-methoxy-benzylsulfanyl)-4H-1,2,4-triazol-3-yl]pyridine]	7
COc1ccc(CSc2nnc(-c3ccco3)n2Cc2ccccc2)cc1 [Example 9, 4-benzyl-3-(2-furyl)-5-[(4-methoxybenzyl)thio]-4H-1,2,4-triazole]	3.8
COc1ccc(CSc2nnc(-c3ccccc3)n2Cc2ccccc2)cc1 [Example 4, 4-benzyl-3-[(4-methoxybenzyl)thio]-5-phenyl-4H-1,2,4-triazole]	1
Clc1ccc(CSc2nnc(-c3ccccc3)n2Cc2ccccc2)cc1 [Example 15, 4-benzyl-3-(4-chloro-benzylsulfanyl)-5-phenyl-4H-1,2,4-triazole]	6
COc1ccc(Cn2c(SCc3ccccc3)nnc2-c2ccco2)cc1 [Example 18, 3-benzylsulfanyl-5-furan-2-yl-4-(4-methoxy-benzyl)-4H-1,2,4-triazole]	46
FC(F)(F)c1ccc(CSc2nnc(-c3ccco3)n2-c2ccccc2)cc1 [Example 12, 3-(2-furyl)-4-phenyl-5-{[4-(trifluoromethyl)benzyl]thio}-4H-1,2,4-triazole]	4.7
c1ccc(CSc2nnc(-c3cccs3)n2Cc2ccccc2)cc1 [Example 2, 4-benzyl-3-(benzylthio)-5-thien-2-yl-4H-1,2,4-triazole]	< 0.2
Clc1ccc(CSc2nnc(-c3ccco3)n2Cc2ccccc2)cc1 [Example 10, 4-benzyl-3-[(4-chlorobenzyl)thio]-5-(2-furyl)-4H-1,2,4-triazole]	3.8
